Reference: patent US10676429B2, “Sulfamoyl-arylamides and the use thereof as medicaments for the treatment of hepatitis B” (priority 2012, dated 2020)

Columns and labels:
[1] = system: HBV; assay: Anti-HBV activity in HepG2.117 cell line (Tet-off, intracellular HBV DNA, realtime PCR); type: cell-based; conditions: HepG2.117 cells, 3 days of treatment, intracellular HBV DNA, read-out: HepG2 117 EC50
[2] = Cytotoxicity in HepG2 cells, 4 days, Resazurin assay; conditions: human, HepG2 cells
[3] = system: HBV; assay: Anti-HBV activity in stable transfected HepG2.2.15 cell line (HBV DNA from secreted virions, realtime PCR); type: cell-based; conditions: HepG2.2.15 cells, 6 days of treatment, secreted virion HBV DNA, read-out: HepG2 2.15 EC50
[4] = Hepatitis B virus, HepG2.117, 72 h
[5] = Hepatitis B virus, HepG2.2.15, 144 h

| SMILES | EC50 [1, 4] [nM] | CC50 at 4 days [2] [nM] | EC50 [3, 5] [nM] | EC50 [1] [nM] | EC50 [3] [nM] |
| --- | --- | --- | --- | --- | --- |
| Cc1cc(NC(=O)c2cccc(S(=O)(=O)N[C@@H]3CCCC[C@H]3O)c2)ccc1F (racemic) [Compound 130] | 1030 | > 25000 | 880 | – | – |
| Cc1cc(NC(=O)c2cccc(S(=O)(=O)N[C@@H]3CCCC[C@@H]3O)c2)ccc1F (racemic) [Compound 132] | 730 | > 25000 | 590 | – | – |
| COC(=O)N1CCCC(NS(=O)(=O)c2cccc(C(=O)Nc3ccc(F)c(C)c3)c2)C1 (racemic) [Compound 159] | – | > 25000 | 150 | – | – |
| COC(=O)N1CCCC(NS(=O)(=O)c2cccc(C(=O)Nc3ccc(F)c(C)c3)c2)C1 (racemic) [Compound 159a] | – | – | – | 860 | 170 |
| COC(=O)N1CCCC(NS(=O)(=O)c2cccc(C(=O)Nc3ccc(F)c(C)c3)c2)C1 (racemic) [Compound 159b] | – | – | – | 230 | 160 |
| Cc1cc(NC(=O)c2cccc(S(=O)(=O)NC3CC(=O)N(C)C3)c2)ccc1F (racemic) [Compound 179] | – | > 25000 | – | – | – |
| Cc1cc(NC(=O)c2cccc(S(=O)(=O)NC3CCCC(O)C3)c2)ccc1F (single isomer, unassigned) [Compound 134a, N-(4-fluoro-3-methyl-phenyl)-3-[[(1R,3S)-3-hydroxycyclohexyl]sulfamoyl]benzamide or N-(4-fluoro-3-methyl-phenyl)-3-[[(1S,3R)-3-hydroxycyclohexyl]sulfamoyl]benzamide] | – | – | – | 720 | 660 |
| Cc1cc(NC(=O)c2cccc(S(=O)(=O)NC3CCCC(O)C3)c2)ccc1F (single isomer, unassigned) [Compound 134b, N-(4-fluoro-3-methyl-phenyl)-3-[[(1R,3S)-3-hydroxycyclohexyl]sulfamoyl]benzamide or N-(4-fluoro-3-methyl-phenyl)-3-[[(1S,3R)-3-hydroxycyclohexyl]sulfamoyl]benzamide] | – | – | – | 200 | 570 |
| Cc1cc(NC(=O)c2cccc(S(=O)(=O)NC3CCCC(O)C3)c2)ccc1F (single isomer, unassigned) [Compound 134c, N-(4-fluoro-3-methyl-phenyl)-3-[[(1R,3R)-3 hydroxycyclohexyl]sulfamoyl]benzamide or N-(4-fluoro-3-methyl-phenyl)-3-[[(1S,3S)-3-hydroxycyclohexyl]sulfamoyl]benzamide] | – | – | – | 380 | 490 |
| Cc1cc(NC(=O)c2cccc(S(=O)(=O)NC3CCCC(O)C3)c2)ccc1F (single isomer, unassigned) [Compound 134d, N-(4-fluoro-3-methyl-phenyl)-3-[[(1R,3R)-3 hydroxycyclohexyl]sulfamoyl]benzamide or N-(4-fluoro-3-methyl-phenyl)-3-[[(1S,3S)-3-hydroxycyclohexyl]sulfamoyl]benzamide] | – | – | – | 1220 | 250 |
| Cc1cc(NC(=O)c2cccc(S(=O)(=O)NC3Cc4ccccc4C3O)c2)ccc1F (single isomer, unassigned) [Compound 141a, N-(4-fluoro-3-methyl-phenyl)-3-[[(1S,2S)-1-hydroxyindan-2-yl]-sulfamoyl]benzamide or N-(4-fluoro-3-methyl-phenyl)-3-[[(1R,2R)-1-hydroxyindan-2-yl]sulfamoyl]benzamide] | – | > 25000 | – | 1650 | 700 |
| O=C(Nc1ccccc1)c1csc(S(=O)(=O)NC2CCCCC2)n1 [Compound 64] | 7830 | > 25000 | – | – | – |
| CC1(NS(=O)(=O)c2cccc(C(=O)Nc3ccc(F)cc3)c2)CCOCC1 [Compound 83] | 1230 | – | 1040 | – | – |
| Cc1cc(NC(=O)c2cccc(S(=O)(=O)NC3CCCC(O)C3)c2)ccc1F (stereo not shown) [Compound 134] | – | > 25000 | – | 570 | – |
| Cc1c(Br)cc(S(=O)(=O)N[C@H]2CCOC2)c(F)c1C(=O)Nc1ccc(F)c(F)c1 [Compound 187] | 950 | > 25000 | – | – | – |
| Cc1ccc(S(=O)(=O)N[C@H]2CCOC2)c(F)c1C(=O)Nc1ccc(F)c(F)c1 [Compound 188] | 240 | > 25000 | – | – | – |
| Cc1cc(NC(=O)c2c(C)ccc(S(=O)(=O)N[C@H]3CCOC3)c2F)ccc1F [Compound 189] | 350 | > 25000 | – | – | – |
| Cc1cc(NC(=O)c2c(C)c(Br)cc(S(=O)(=O)NC3(C)COC3)c2F)ccc1F [Compound 190] | 270 | > 25000 | – | – | – |
| Cc1ccc(S(=O)(=O)NC2(C)COC2)c(F)c1C(=O)Nc1cc(F)c(F)c(Cl)c1 [Compound 192] | 190 | > 25000 | – | – | – |
| Cc1ccc(S(=O)(=O)N[C@H](C)C(F)(F)F)c(F)c1C(=O)Nc1cc(F)c(F)c(Cl)c1 [Compound 193] | 100 | 13500 | – | – | – |
| Cc1cc(NC(=O)c2c(F)ccc(S(=O)(=O)N[C@H]3CCOC3)c2F)ccc1F [Compound 197] | 90 | > 25000 | – | – | – |
| O=C(Nc1ccc(F)c(Br)c1)c1c(F)ccc(S(=O)(=O)N[C@H]2CCOC2)c1F [Compound 198] | 150 | > 25000 | – | – | – |

| SMILES | EC50 [1, 4] [nM] | CC50 at 4 days [2] [nM] | EC50 [3, 5] [nM] | EC50 [1] [nM] | EC50 [3] [nM] |
| --- | --- | --- | --- | --- | --- |
| N#Cc1cc(NC(=O)c2c(F)ccc(S(=O)(=O)N[C@H]3CCOC3)c2F)ccc1F [Compound 199] | 430 | > 25000 | – | – | – |
| O=C(Nc1ccc(F)c(C(F)(F)F)c1)c1c(F)ccc(S(=O)(=O)N[C@H]2CCOC2)c1F [Compound 200] | 450 | > 25000 | – | – | – |
| CC(C)NS(=O)(=O)c1ccc(F)c(C(=O)Nc2ccc(F)c(F)c2)c1F [Compound 202] | 110 | > 25000 | – | – | – |
| CC(C)NS(=O)(=O)c1ccc(F)c(C(=O)Nc2cccc(C(F)(F)F)c2)c1F [Compound 203] | 240 | 16700 | – | – | – |
| Cc1cc(NC(=O)c2c(C)ccc(S(=O)(=O)NC3(C)COC3)c2F)ccc1F [Compound 204] | 90 | > 25000 | – | – | – |
| Cc1cc(NC(=O)c2c(C)ccc(S(=O)(=O)NC(C)(C)C)c2F)ccc1F [Compound 205] | 350 | > 25000 | – | – | – |
| Cc1ccc(S(=O)(=O)NC(C)(C)C)c(F)c1C(=O)Nc1ccc(F)c(F)c1 [Compound 206] | 640 | > 25000 | – | – | – |
| CC1(NS(=O)(=O)c2ccc(Cl)c(C(=O)Nc3ccc(F)c(C#N)c3)c2F)COC1 [Compound 207] | > 1000 | > 25000 | – | – | – |
| CC1(NS(=O)(=O)c2ccc(Cl)c(C(=O)Nc3ccc(F)c(C(F)(F)F)c3)c2F)COC1 [Compound 208] | > 1000 | > 25000 | – | – | – |
| Cc1cc(NC(=O)c2c(Cl)ccc(S(=O)(=O)NC3(C)COC3)c2F)cc(F)c1F [Compound 209] | 150 | > 25000 | – | – | – |
| CC1(NS(=O)(=O)c2ccc(Cl)c(C(=O)Nc3cc(F)c(F)c(Cl)c3)c2F)COC1 [Compound 210] | 460 | > 25000 | – | – | – |
| CC1(NS(=O)(=O)c2ccc(F)c(C(=O)Nc3ccc(F)c(F)c3)c2Cl)COC1 [Compound 211] | 650 | > 25000 | – | – | – |
| CC1(NS(=O)(=O)c2ccc(F)c(C(=O)Nc3ccc(F)c(C(F)(F)F)c3)c2Br)COC1 [Compound 212] | 7300 | > 25000 | – | – | – |
| Cc1cc(NC(=O)c2c(Br)ccc(S(=O)(=O)NC3(C)COC3)c2F)ccc1F [Compound 213] | 280 | > 25000 | – | – | – |
| CC1(NS(=O)(=O)c2ccc(Br)c(C(=O)Nc3ccc(F)c(C#N)c3)c2F)COC1 [Compound 214] | > 1000 | > 25000 | – | – | – |
| CC1(NS(=O)(=O)c2ccc(Br)c(C(=O)Nc3ccc(F)c(C(F)(F)F)c3)c2F)COC1 [Compound 215] | > 1000 | > 25000 | – | – | – |
| Cc1cc(NC(=O)c2c(Br)ccc(S(=O)(=O)NC3(C)COC3)c2F)cc(F)c1F [Compound 216] | 290 | > 25000 | – | – | – |
| CC1(NS(=O)(=O)c2cccc(C(=O)Nc3ccc(F)c(C(F)(F)F)c3)c2F)COC1 [Compound 219] | 460 | > 25000 | – | – | – |
| Cc1cc(NC(=O)c2cccc(S(=O)(=O)NC(C)(C)C)c2F)ccc1F [Compound 221] | 130 | > 25000 | – | – | – |
| Cc1cc(NC(=O)c2cccc(S(=O)(=O)NC3(C)CCOC3)c2)ccc1F (stereo not shown) [Compound 223] | 210 | > 25000 | – | – | – |
| Cc1cc(NC(=O)c2cc(S(=O)(=O)NC3(C)COC3)ccc2Cl)ccc1F [Compound 232] | 310 | > 25000 | – | – | – |
